This is an account of results in patent publication US9732094B2, “Arylquinazolines” (Merck Patent GmbH, priority 2013, dated 2017).

Data set [1] concerns the target T1, Kv11.1 (hERG) (Homo sapiens (Human), UniProt Q12809). Description: Kv11.1 ion channel binding assay (Predictor hERG fluorescence polarisation). The settings on record: cells marked *: measured using hERG binding assay instead of hERG patch clamp assay; read-out: Ki [Kv1.11 hERG]. Here is the method: D) Kv11.1 Ion Channel Binding Assay
Kv11.1 (hERG=human ether a go-go related […]) is a cardiac K^+ channel which should if possible not interact with the test substances. This interaction is determined quantitatively with the aid of the Predictor™ hERG Fluorescence Polarizations (FP) Assays from Life Technologies. In the case of this assay principle, cardiomyocyte cell membranes having a certain proportion of Kv11.1 channels are isolated. A dye-labelled Kv11.1 binding partner gives a high fluorescence polarisation signal by interaction with the Kv11.1. In the case of displacement of the dye, a reduction in the fluorescence polarisation signal occurs.
The assay is carried out automatically as follows: 15 nl of the test substances (highest concentration: 10 mM, 10 concentrations: dilution factors 1:3.16, DMSO) are transferred into an empty microtitre plates having 384 wells by means of an acoustic pipetter. 3 μl of the isolated membranes are subsequently added. Membranes and test substances are incubated at 22° C. for 15 min (+/−5 min). In the next step, the dye-labelled binding partner is added, followed by incubation at 22° C. After incubation for two hours, the measurement of the fluorescence polarisation is carried out on an Envision multimode Reader. Measured raw data are standardised with the aid of Genedata Assay Analyzer. The 1050 and % effect values are calculated in Genedata Condoseo.

Data set [2] has as its target DNA-PK phosphorylation at serine 2056 (Homo sapiens (Human), UniProt P78527). Description: DNA-PK phosphorylation at serine 2056 (cellular), bleomycin-treated HCT116 cells, ELISA. The settings on record: read-out: IC50 pDNA-PK. It counts as cell-based. In a few lines: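 Chemiluminescent ELISA read-out; phospho-specific signal normalised to total DNA-PKcs. Cells (HCT116) exposed 6 h to test compound plus 10 μM bleomycin to induce double-strand breaks; DMSO control served as blank.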

For a further data set, the target named is DNA-PK (Homo sapiens (Human), UniProt P78527). Nature of the data set: DNA-PK assay (biochemical), flashplate 33P-ATP kinase assay. In a few lines:
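Reactions ran in streptavidin-coated flashplates and were halted by 200 mM EDTA, with a further 30 min at room temperature before saline washing.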

Data set [3] addresses T1, Kv11.1 (hERG). Description: Kv11.1 (hERG) ion channel activity (patch clamp assay), HEK293 cells transfected with hERG gene. On the technique in general: hERG is a cardiac potassium channel; its block is linked to QT prolongation.
Setting [4] is: cellular DNA-PK phosphorylation at serine 2056, HCT116.
[5] abbreviates: read-out: Ki [Kv1.11 hERG], patch clamp, HEK293 transfected with hERG gene.
The mark [6] stands for this setting: cellular, HCT116 cells, 10 μM bleomycin, six hours.
Where [7] appears, read: read-out: Ki [Kv1.11 hERG], hERG patch clamp assay (cells without asterisk).
The mark [8] stands for this setting: Ki [Kv1.11 hERG], patch clamp, HEK293 transfected with hERG gene.

Read-outs that look alike come from different tables or passages of the source.

T1 sequence (Q12809 whole entry): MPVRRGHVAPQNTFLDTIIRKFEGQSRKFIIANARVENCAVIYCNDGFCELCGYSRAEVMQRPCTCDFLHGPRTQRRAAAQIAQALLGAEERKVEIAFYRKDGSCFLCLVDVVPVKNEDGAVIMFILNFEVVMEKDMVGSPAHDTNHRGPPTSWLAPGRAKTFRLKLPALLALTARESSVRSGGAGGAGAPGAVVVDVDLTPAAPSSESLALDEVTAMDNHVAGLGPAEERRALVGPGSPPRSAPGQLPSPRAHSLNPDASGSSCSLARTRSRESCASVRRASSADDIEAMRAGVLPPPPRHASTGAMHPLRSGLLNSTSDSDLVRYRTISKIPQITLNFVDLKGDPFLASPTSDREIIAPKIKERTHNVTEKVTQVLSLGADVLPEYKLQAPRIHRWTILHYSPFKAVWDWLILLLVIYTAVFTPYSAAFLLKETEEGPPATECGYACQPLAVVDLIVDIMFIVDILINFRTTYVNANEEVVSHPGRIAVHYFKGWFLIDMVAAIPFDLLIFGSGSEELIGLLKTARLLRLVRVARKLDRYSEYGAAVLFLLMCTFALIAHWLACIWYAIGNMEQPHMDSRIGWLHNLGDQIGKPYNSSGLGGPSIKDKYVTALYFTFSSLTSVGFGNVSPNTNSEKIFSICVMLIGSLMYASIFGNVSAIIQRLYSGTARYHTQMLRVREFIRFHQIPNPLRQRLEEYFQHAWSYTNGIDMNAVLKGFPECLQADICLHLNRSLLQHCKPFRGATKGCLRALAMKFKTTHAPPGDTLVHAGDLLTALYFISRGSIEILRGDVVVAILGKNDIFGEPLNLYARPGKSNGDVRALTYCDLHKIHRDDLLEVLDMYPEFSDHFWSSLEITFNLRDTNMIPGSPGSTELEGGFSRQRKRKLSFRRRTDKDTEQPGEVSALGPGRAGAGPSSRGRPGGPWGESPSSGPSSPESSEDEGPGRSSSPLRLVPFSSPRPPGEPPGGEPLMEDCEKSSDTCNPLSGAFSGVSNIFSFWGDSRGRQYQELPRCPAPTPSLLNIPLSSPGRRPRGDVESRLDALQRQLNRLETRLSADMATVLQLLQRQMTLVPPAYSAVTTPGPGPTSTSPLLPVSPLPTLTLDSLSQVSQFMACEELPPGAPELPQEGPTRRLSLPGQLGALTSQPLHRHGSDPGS

As usually defined, the Ki is the dissociation constant of the complex between target and ligand, obtained from inhibition or displacement. One may read the IC50 as the point on the concentration scale where inhibition reaches its midpoint. In the case of `COc1ccc(C(C(N)=O)c2cc(-c3ncnc4cc(N5CCOCC5)sc34)c(F)cc2Cl)nn1` (stereo not drawn) [Example 272, 2-[2-Chloro-4-fluoro-5-(6-morpholin-4-yl-thieno[3,2-d}-pyrimidin-4-yl)-phenyl]-2-(6-methoxy-pyridazin-3-yl)acetamide], the Ki at Kv11.1 (hERG) [1] is greater than 25000 nM. Also, the IC50 lay within 500 to 5000 nM in data set [2] (setting [4]) and 3 to 7 nM against DNA-PK (biochemical DNA-PK assay).

As to `CNC(=O)C(c1ccc2nccn2n1)c1cc(-c2ncnc3cc(N4CCOCC4)ccc23)c(F)cc1Cl` (stereo not drawn) [Example 236, 2-[2-Chloro-4-fluoro-5-(7-morpholin-4-yl-quinazolin-4-yl)-phenyl]-2-imidazo-[1,2-b]pyridazin-6-yl-N-methylacetamide], at Kv11.1 (hERG) [1], the Ki was greater than 25000 nM. Besides, the IC50 is 5000 to 10000 nM in data set [2] (setting [4]) and greater than 30 nM against DNA-PK (biochemical DNA-PK assay).

For `Cc1nccnc1C(O)c1ccc(F)c(-c2ncnc3cc(N4CCOCC4)sc23)c1` (stereo not drawn) [Example 245, [4-Fluoro-3-(6-morpholin-4-yl-thieno[3,2-d}-pyrimidin-4-yl)-phenyl]-(3-methyl-pyrazin-2-yl)-methanol], the Ki on Kv11.1 (hERG) [1] is greater than 25000 nM. Besides, the 50% inhibitory concentration (IC50) in data set [2] (setting [4]) was less than 500 nM; at DNA-PK (biochemical DNA-PK assay), less than 3 nM.

Consider `Cc1nccnc1[C@@H](O)c1ccc(F)c(-c2ncnc3cc(N4CCOCC4)cc(F)c23)c1` [Example 251, (S)-[4-fluoro-3-(5-fluoro-7-morpholin-4-ylquinazolin-4-yl)-phenyl]-(3-methyl-pyrazin-2-yl)-methanol], for which the Ki at Kv11.1 (hERG) [1] was greater than 25000 nM. For the same molecule, the results for the concentration for half-maximal inhibition (IC50) (in data set [2] (setting [4]); against DNA-PK (biochemical DNA-PK assay)) were 500 to 5000 nM and 3 to 7 nM, respectively.

Turning to `COC(c1ccc(F)c(-c2ncnc3cc(N4CCOCC4)ccc23)c1)c1nccnc1C` (stereo not drawn) [Example 352, 4-{2-Fluoro-5-[methoxy-(3-methyl-pyrazin-2-yl)methyl]-phenyl}-7-morpholin-4-ylquinazoline], on Kv11.1 (hERG) [1], the inhibition constant (Ki) is greater than 25000 nM. Also, the IC50 at DNA-PK (biochemical DNA-PK assay) is greater than 30 nM.

As for `[2H]C1([2H])OC([2H])([2H])C([2H])([2H])N(c2ccc3c(-c4cc(C(O)c5nccnc5C)ccc4F)ncnc3c2)C1([2H])[2H]` (stereo not drawn) [Example 259, [4-Fluoro-3-[7-(2.2,3,3,5,5,6,6-octadeuteriomorpholin-4-yl)quinazolin-4-yl]phenyl]-(3-methyl-pyrazin-2-yl)-methanol], the Ki on Kv11.1 (hERG) [1] is greater than 25000 nM. Moreover, the half-inhibitory concentration (IC50) in data set [2] (setting [4]) was less than 500 nM; against DNA-PK (biochemical DNA-PK assay), less than 3 nM.

As to `Fc1cc(Cl)c(Cc2ccc3nccn3n2)cc1-c1ncnc2cc(N3CCOCC3)ccc12` [Example 235, 4-(4-Chloro-2-fluoro-5-imidazo[1,2-b]-pyridazin-6-ylmethyl - phenyl)-7-morpholin-4-ylquinazoline], the Ki on Kv11.1 (hERG) [1] is greater than 25000 nM. For the same molecule, the 50% inhibitory concentration (IC50) is less than 500 nM in data set [2] (setting [4]) and less than 3 nM against DNA-PK (biochemical DNA-PK assay).

Take `COc1ccc(C(O)c2cc(-c3ncnc4cc(N5CCOCC5)cc(F)c34)c(F)cc2Cl)nn1` (stereo not drawn) [Example 278, [2-chloro-4-fluoro-5-(5-fluoro-7-morpholin-4-ylquinazolin-4-yl)phenyl]-(6-methoxypyridazin-3-yl)methanol]: at Kv11.1 (hERG) [1], the Ki was greater than 25000 nM. Moreover, the IC50 in data set [2] (setting [4]) was less than 500 nM; against DNA-PK (biochemical DNA-PK assay) it was less than 3 nM.

Regarding `COc1ccc(C(O)c2cc(-c3ncnc4cc(N5CCOCC5)ccc34)ccc2Cl)nn1` (stereo not drawn) [Example 460, [2-Chloro-5-(7-morpholin-4-yl-quinazolin-4-yl)-phenyl]-(6-methoxy-pyridazin-3-yl)-methanol], on Kv11.1 (hERG) [1], the Ki was greater than 25000 nM. For the same molecule, the IC50 was less than 500 nM in data set [2] (setting [4]) and 3 to 7 nM against DNA-PK (biochemical DNA-PK assay).

Take `Cn1cnc2ccnc(C(O)c3ccc(F)c(-c4ncnc5cc(N6CCOCC6)ccc45)c3)c21` (stereo not drawn) [Example 461, [4-Fluoro-3-(7-morpholin-4-yl-quinazolin-4-yl)-phenyl]-(3-methyl-3H-imidazo[4,5-c]-pyridin-4-yl)methanol]: on Kv11.1 (hERG) [1], the inhibitory constant (Ki) was greater than 25000 nM. For the same molecule, the IC50 is less than 500 nM in data set [2] (setting [4]) and less than 3 nM at DNA-PK (biochemical DNA-PK assay).

For `Cc1nccnc1C(C(N)=O)c1cc(-c2ncnc3cc(N4CCOCC4)sc23)c(F)cc1Cl` (stereo not drawn) [Example 269, 2-[2-Chloro-4-fluoro-5-(6-morpholin-4-yl-thieno[3,2-d}-pyrimidin-4-yl)-phenyl]-2-(3-methyl-pyrazin-2-yl)-acetamide], at Kv11.1 (hERG) [1], the Ki was greater than 25000 nM. Moreover, the half-inhibitory concentration (IC50) in data set [2] (setting [4]) was 500 to 5000 nM; against DNA-PK (biochemical DNA-PK assay), 3 to 7 nM.

Consider `COc1nnc(Cl)cc1C(O)c1ccc(F)c(-c2ncnc3cc(N4CCOCC4)ccc23)c1` (stereo not drawn) [Example 286, (6-Chloro-3-methoxy-pyridazin-4-yl)-[4-fluoro-3-(7-morpholin-4-yl-quinazolin-4-yl)-phenyl]methanol], for which the Ki at Kv11.1 (hERG) [1] is greater than 25000 nM. Also, the values for the IC50 (in data set [2] (setting [4]); on DNA-PK (biochemical DNA-PK assay)) were 5000 to 10000 nM and 7 to 30 nM, respectively.

Take `[2H]C1([2H])OC([2H])([2H])C([2H])([2H])N(c2ccc3c(-c4cc(C(O)c5ccc(OC)nn5)c(Cl)cc4F)ncnc3c2)C1([2H])[2H]` (single isomer, unassigned) [Example 262, [2-Chloro-4-fluoro-5-[7-(2,2,3,3,5,5,6,6-octadeuteriomorpholin-4-yl)quinazolin-4-yl]phenyl]-(6-methoxypyridazin-3-yl)methanol]: the Ki on Kv11.1 (hERG) [1] was greater than 25000 nM.

Turning to `Cn1c(C(O)c2ccc(F)c(-c3ncnc4cc(N5CCOCC5)ccc34)c2)cccc1=O` (stereo not drawn) [Example 91, 6-{[4-Fluoro-3-(7-morpholin-4-yl-quinazolin-4-yl)-phenyl]hydroxy-methyl}-1-methyl-1H-pyridin-2-one], the Ki at Kv11.1 (hERG) [3] (setting [5]) was greater than 25000 nM. The IC50 was less than 500 nM in data set [2] (setting [6]) and less than 3 nM against DNA-PK (enzymatic, 5 μM ATP).

Take `COc1ccc(C(O)(c2cc(-c3ncnc4cc(N5CCOCC5)ccc34)c(F)cc2Cl)C(F)F)nn1` (stereo not drawn) [Example 123, 1-[2-Chloro-4-fluoro-5-(7-morpholin-4-yl-quinazolin-4-yl)-phenyl]-2,2-difluoro-1-(6-methoxy-pyridazin-3-yl)-ethanol]: the inhibitory constant (Ki) at Kv11.1 (hERG) [3] (setting [5]) is greater than 25000 nM. Besides, the IC50 was 10000 to 30000 nM in data set [2] (setting [6]) and 7 to 30 nM against DNA-PK (enzymatic, 5 μM ATP).

With `Cc1nccnc1C(C(N)=O)c1cc(-c2ncnc3cc(N4CCOCC4)ccc23)c(F)cc1Cl` (stereo not drawn) [Example 324, 2-[2-Chloro-4-fluoro-5-(7-morpholin-4-yl-quinazolin-4-yl)-phenyl]-2-(3-methyl-pyrazin-2-yl)-acetamide], the Ki at Kv11.1 (hERG) [3] (setting [7]) was greater than 25000 nM. Further, the IC50 fell in the range of 500 to 5000 nM in data set [2] (setting [4]) and 3 to 7 nM against DNA-PK (biochemical DNA-PK assay).

As for `C#Cc1nc(-c2cc(C(O)c3nccs3)ccc2F)c2ccc(N3CCOCC3)cc2n1` (stereo not drawn) [Example 216, [3-(2-Ethynyl-7-morpholin-4-yl-quinazolin-4-yl)-4-fluorophenyl]-thiazol-2-yl-methanol], on Kv11.1 (hERG) [3] (setting [8]), the Ki was in the range of 10000 to 15000 nM. Also, the IC50 in data set [2] (setting [6]) is 10000 to 30000 nM; on DNA-PK (enzymatic, 5 μM ATP) it was less than 3 nM.

In the case of `OC(c1ccc(F)c(-c2ncnc3cc(N4CCOCC4)ccc23)c1)c1c(F)cncc1F` (stereo not drawn) [Example 1, (3,5-Difluoropyridin-4-yl)-[4-fluoro-3-(7-morpholin-4-ylquinazolin-4-yl)phenyl]methanol], the Ki on Kv11.1 (hERG) [3] (setting [8]) was in the range of 15000 to 25000 nM. Further, the IC50 was 500 to 5000 nM in data set [2] (setting [6]) and 3 to 7 nM on DNA-PK (enzymatic, 5 μM ATP).

As for `Cc1csc(C(O)c2cc(-c3ncnc4cc(N5CCOCC5)ccc34)c(F)cc2Cl)n1` (stereo not drawn) [Example 181, [2-Chloro-4-fluoro-5-(7-morpholin-4-yl-quinazolin-4-yl)-phenyl]-(4-methyl-thiazol-2-yl)-methanol], at Kv11.1 (hERG) [3] (read-out: Ki [Kv1.11 hERG], Table 5), the Ki is less than 10000 nM. For the same molecule, the IC50 in data set [2] (Table 5, HCT116 cells) was 500 to 5000 nM; against DNA-PK (Table 5) it was less than 3 nM.

The molecule `OC(c1ccc(F)c(-c2ncnc3cc(N4CCOCC4)ccc23)c1)c1ncccc1OC(F)(F)F` (stereo not drawn) [Example 475, [4-Fluoro-3-(7-morpholin-4-yl-quinazolin-4-yl)-phenyl]-(3-trifluoro-methoxypyridin-2-yl)-methanol] came in with a Ki on Kv11.1 (hERG) [3] (Ki [Kv1.11 hERG], hERG patch clamp assay (cells without asterisk)) of 15000 to 25000 nM. The IC50 is less than 500 nM in data set [2] (setting [4]) and less than 3 nM at DNA-PK (biochemical DNA-PK assay).

In the case of `OC(c1cc(-c2ncnc3cc(N4CCOCC4)ccc23)ccc1F)c1ncnc2ccsc12` (stereo not drawn) [Example 405, [2-Fluoro-5-(7-morpholin-4-yl-quinazolin-4-yl)-phenyl]thieno[3,2-d}-pyrimidin-4-yl-methanol], the Ki at Kv11.1 (hERG) [3] (setting [7]) was less than 10000 nM. The concentration for half-maximal inhibition (IC50) in data set [2] (setting [4]) was less than 500 nM; against DNA-PK (biochemical DNA-PK assay), less than 3 nM.
